Data reported in patent US20240246941A1, “SUBSTITUTED 4-(3-AMINOPROP-1-YL)AMINOQUINOLINE ANALOGS AS MODULATORS OF MELANOMA-ASSOCIATED ANTIGEN 11 UBIQUITIN LIGASE” (ST. JUDE CHILDREN'S RESEARCH HOSPITAL, INC., priority 2020, published 2024).

target: interaction between GST-MAGEA11 MHD and FAM-PCF11_4 peptide (MAGE-A11:PCF11) (Homo sapiens (Human), UniProt P43364); assay: TR-FRET dose response competition assay for disruption of MAGE-A11:PCF11 binding; details: Dose response TR-FRET screening of nine scaffold groups against MAGE-A11:PCF11; read-out: consensus IC50
In short: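 Competition TR-FRET at room temperature in 50 mM Tris pH 7.5, 20 mM MgCl2, 0.1 mg/ml BSA, 1 mM DTT: final 5 nM GST-MAGEA11 MHD, 5 nM Tb-anti-GST, 200 nM FAM-PCF11_4, 90 min. Ratio 520/490 nm converted to % inhibition; IC50 from sigmoidal fit.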

Sequence of interaction between GST-MAGEA11 MHD and FAM-PCF11_4 peptide (MAGE-A11:PCF11) (P43364 218-429): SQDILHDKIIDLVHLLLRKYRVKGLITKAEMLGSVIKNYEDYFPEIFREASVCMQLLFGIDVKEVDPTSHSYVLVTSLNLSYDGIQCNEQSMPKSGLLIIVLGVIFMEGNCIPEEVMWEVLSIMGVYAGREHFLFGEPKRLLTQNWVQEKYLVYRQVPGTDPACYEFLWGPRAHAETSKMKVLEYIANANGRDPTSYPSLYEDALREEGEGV

Point of comparison: `CCCCn1c(=O)[nH]c(=O)c2c1nc(-c1ccc(SC)cc1)n2C` [SJ000382100-1], IC50 69.9 µM. Against it:
- CCCCn1c(=O)[nH]c(=O)c2c1nc(-c1ccc(CC)c([N+](=O)[O-])c1)n2C [SJ000378868-1] — the same, 69.9 µM
- C=CCOc1ccc(-c2nc3c(c(=O)[nH]c(=O)n3CCC)n2CCCC)cc1 [SJ000378878-1] — the same, 69.9 µM
- C=CCOc1ccc(-c2nc3c(c(=O)[nH]c(=O)n3Cc3ccccc3)n2CCCOC)cc1 [SJ000378880-1] — the same, 69.9 µM
- CCCn1c(=O)[nH]c(=O)c2c1nc(-c1ccc(OC)c(Br)c1)n2CCOC [SJ000378893-1] — the same, 69.9 µM
- CCCCCn1c(-c2ccc(F)c(Br)c2)nc2c1c(=O)[nH]c(=O)n2CCCC [SJ000378900-1] — 26-fold lower, 2.64 µM
- CCCCn1c(=O)[nH]c(=O)c2c1nc(-c1ccc(OCC(C)C)c(OCC)c1)n2CC [SJ000378903-1] — the same, 69.9 µM
- CCCCn1c(-c2ccc(OCCC)c(OCC)c2)nc2c1c(=O)[nH]c(=O)n2CCC [SJ000378906-1] — the same, 69.9 µM
- CCCCn1c(-c2ccc(Cl)cc2)nc2c1c(=O)[nH]c(=O)n2Cc1ccccc1 [SJ000378907-1] — the same, 69.9 µM
- CCCCn1c(=O)[nH]c(=O)c2c1nc(-c1ccc(C(F)(F)F)cc1)n2C [SJ000378916-1] — the same, 69.9 µM
- COCCn1c(-c2ccc(SC)cc2)nc2c1c(=O)[nH]c(=O)n2CC(C)C [SJ000378917-1] — the same, 69.9 µM
- CCCCn1c(=O)[nH]c(=O)c2c1nc(-c1ccc(C)c([N+](=O)[O-])c1)n2CC [SJ000378919-1] — the same, 69.9 µM
- CCCn1c(=O)[nH]c(=O)c2c1nc(-c1cccc(F)c1)n2CCOC [SJ000378928-1] — the same, 69.9 µM
- CCCCn1c(=O)[nH]c(=O)c2c1nc(-c1ccc([N+](=O)[O-])cc1)n2CC [SJ000378938-1] — the same, 69.9 µM
- CCCCn1c(=O)[nH]c(=O)c2c1nc(-c1ccc(OC)c(Br)c1)n2CC(C)C [SJ000378943-1] — the same, 69.9 µM
- CCCCn1c(=O)[nH]c(=O)c2c1nc(-c1ccc(OCCC)c(OCC)c1)n2CCOC [SJ000378946-1] — the same, 69.9 µM
- CCCCn1c(=O)[nH]c(=O)c2c1nc(-c1ccc(OC(F)(F)C(F)C(F)(F)F)cc1)n2O (stereo not drawn) [SJ000378966-1] — the same, 69.9 µM
- Cc1ccc(-c2nc3c(c(=O)[nH]c(=O)n3CC(C)C)n2CC(C)C)cc1[N+](=O)[O-] [SJ000379015-1] — the same, 69.9 µM
- C=CCOc1ccc(-c2nc3c(c(=O)[nH]c(=O)n3Cc3ccccc3)n2CCC)cc1Br [SJ000379301-1] — the same, 69.9 µM
- CCCn1c(=O)[nH]c(=O)c2c1nc(-c1ccc(OC(F)(F)C(F)C(F)(F)F)cc1)n2CCOC (stereo not drawn) [SJ000379374-1] — the same, 69.9 µM
- C=CCOc1ccc(-c2nc3c(c(=O)[nH]c(=O)n3CCCC)n2C)cc1Br [SJ000379462-1] — the same, 69.9 µM
- CCCn1c(-c2ccc(SC)cc2)nc2c1c(=O)[nH]c(=O)n2Cc1ccccc1 [SJ000381119-1] — the same, 69.9 µM
- CCCOc1ccc(-c2nc3c(c(=O)[nH]c(=O)n3Cc3ccccc3)n2CCO)cc1OCC [SJ000381474-1] — the same, 69.9 µM
- COc1ccc(Br)cc1-c1nc2c(c(=O)[nH]c(=O)n2Cc2ccccc2)n1C [SJ000382136-1] — the same, 69.9 µM
- CCCn1c(-c2cccc(C(F)(F)F)c2)nc2c1c(=O)[nH]c(=O)n2Cc1ccccc1 [SJ000382289-1] — the same, 69.9 µM
- CCCn1c(-c2cccc(F)c2)nc2c1c(=O)[nH]c(=O)n2Cc1ccccc1 [SJ000382299-1] — the same, 69.9 µM
- CCCn1c(-c2ccc(C#N)cc2)nc2c1c(=O)[nH]c(=O)n2Cc1ccccc1 [SJ000383781-1] — the same, 69.9 µM
- COCCCn1c(-c2cccc(Cl)c2)nc2c1c(=O)[nH]c(=O)n2Cc1ccccc1 [SJ000383944-1] — the same, 69.9 µM
- Cn1c(-c2ccc(Cl)cc2)nc2c1c(=O)[nH]c(=O)n2Cc1ccccc1 [SJ000384618-1] — the same, 69.9 µM
- Cn1c(-c2cc(Cl)ccc2O)nc2c1c(=O)[nH]c(=O)n2Cc1ccccc1 [SJ000386224-1] — the same, 69.9 µM
- Cn1c(-c2cccc(F)c2)nc2c1c(=O)[nH]c(=O)n2Cc1ccccc1 [SJ000387665-1] — the same, 69.9 µM
- CCOc1ccc(-c2nc3c(c(=O)[nH]c(=O)n3Cc3ccccc3)n2C)cc1 [SJ000389476-1] — the same, 69.9 µM
- CC(C)Cn1c(-c2cc([N+](=O)[O-])ccc2Cl)nc2c1c(=O)[nH]c(=O)n2Cc1ccccc1 [SJ000390112-1] — the same, 69.9 µM
- CSc1ccc(-c2nc3c(c(=O)[nH]c(=O)n3CC(C)C)n2CC(C)C)cc1 [SJ000394956-1] — the same, 69.9 µM
- CCCN1C(=O)c2ccccc2NC1c1cccc(O)c1O (stereo not drawn) [SJ000395233-1] — the same, 69.9 µM
- COCCNC(=O)Cn1cnc2cc(-c3ccc(Cl)cc3)sc2c1=O [SJ000395304-1] — the same, 69.9 µM
- CN(C)c1ccc(-c2nc3c(c(=O)[nH]c(=O)n3Cc3ccccc3)n2C)cc1 [SJ000396262-1] — the same, 69.9 µM
- COc1ccc(-c2cc3ncn(CC(=O)O)c(=O)c3s2)cc1 [SJ000397503-1] — the same, 69.9 µM
- N#CCCn1cnc2cc(-c3ccc(Br)cc3)sc2c1=O [SJ000397713-1] — the same, 69.9 µM
- CCCCOC(=O)Cn1cnc2cc(-c3ccc(OC)cc3)sc2c1=O [SJ000399852-1] — the same, 69.9 µM
- CCOC(=O)Cn1cnc2cc(-c3ccc(OC)cc3)sc2c1=O [SJ000399862-1] — the same, 69.9 µM
- CCCn1c(=O)[nH]c(=O)c2c1nc(-c1ccc(C#N)cc1)n2CCN1CCOCC1 [SJ000403937-1] — the same, 69.9 µM
- Cn1c(-c2ccc(C(F)(F)F)cc2)nc2c1c(=O)[nH]c(=O)n2Cc1ccccc1 [SJ000404631-1] — the same, 69.9 µM
- CSc1nc2cc(-c3ccccc3)sc2c(=O)n1CCN1CCOCC1 [SJ000405932-1] — the same, 69.9 µM
- CCCn1c(=O)[nH]c(=O)c2c1nc(-c1ccc(NC(C)=O)cc1)n2CCN1CCOCC1 [SJ000406218-1] — the same, 69.9 µM
- COCCCn1c(-c2cc(Br)ccc2F)nc2c1c(=O)[nH]c(=O)n2Cc1ccccc1 [SJ000411586-1] — the same, 69.9 µM
- O=C1OCC(c2ccc(Cl)cc2)=C1c1ccc([N+](=O)[O-])cc1 [SJ000413143-1] — the same, 69.9 µM
- CCC(C)N1C(=O)c2ccccc2NC1c1cccc(OC)c1O (stereo not drawn) [SJ000413320-1] — the same, 69.9 µM
- CCCN1C(=O)c2ccccc2NC1c1cc(Cl)c(O)c(OC)c1 (stereo not drawn) [SJ000414199-1] — the same, 69.9 µM
- CCCCn1c(=O)[nH]c(=O)c2c1nc(-c1cccc(F)c1)n2CC [SJ000414469-1] — the same, 69.9 µM
- CCCCn1c(=O)[nH]c(=O)c2c1nc(-c1cccc(F)c1)n2C [SJ000415940-1] — the same, 69.9 µM
- CCCn1c(=O)[nH]c(=O)c2c1nc(-c1ccc(SC)cc1)n2CCOC [SJ000416762-1] — the same, 69.9 µM
- COC(=O)Cn1cnc2cc(-c3ccc(Cl)cc3)sc2c1=O [SJ000418500-1] — the same, 69.9 µM
- COCCCn1c(-c2ccc(C#N)cc2)nc2c1c(=O)[nH]c(=O)n2Cc1ccccc1 [SJ000420075-1] — the same, 69.9 µM
- C=CCOc1ccc(-c2nc3c(c(=O)[nH]c(=O)n3Cc3ccccc3)n2C)cc1Br [SJ000420085-1] — the same, 69.9 µM
- CCCn1c(-c2ccc(C(=O)O)cc2)nc2c1c(=O)[nH]c(=O)n2Cc1ccccc1 [SJ000420129-1] — the same, 69.9 µM
- CCCn1c(-c2ccc(C(=O)OC)cc2)nc2c1c(=O)[nH]c(=O)n2Cc1ccccc1 [SJ000420179-1] — the same, 69.9 µM
- CCc1ccc(-c2nc3c(c(=O)[nH]c(=O)n3CC(C)C)n2CCOC)cc1 [SJ000420343-1] — the same, 69.9 µM
- CCCCn1c(=O)[nH]c(=O)c2c1nc(-c1ccc(C#N)cc1)n2C [SJ000421295-1] — the same, 69.9 µM
- COCCn1c(-c2ccc(C)cc2)nc2c1c(=O)[nH]c(=O)n2CC(C)C [SJ000421396-1] — the same, 69.9 µM
- CCCCn1c(=O)[nH]c(=O)c2c1nc(-c1ccc(F)cc1)n2CCOC [SJ000421862-1] — the same, 69.9 µM
- COCCn1c(-c2ccc(F)cc2)nc2c1c(=O)[nH]c(=O)n2CC(C)C [SJ000422648-1] — the same, 69.9 µM
- CCCn1c(=O)[nH]c(=O)c2c1nc(-c1ccc(OC)cc1)n2CCOC [SJ000423271-1] — the same, 69.9 µM
- CCCn1c(=O)[nH]c(=O)c2c1nc(-c1cccc(C)c1)n2CCOC [SJ000423281-1] — the same, 69.9 µM
- CCCn1c(=O)[nH]c(=O)c2c1nc(-c1ccc(Cl)cc1)n2CCOC [SJ000424475-1] — the same, 69.9 µM
- CCCCn1c(=O)[nH]c(=O)c2c1nc(-c1ccc(C)cc1)n2C [SJ000425093-1] — the same, 69.9 µM
- CCCn1c(=O)[nH]c(=O)c2c1nc(-c1ccc(OC)c(C)c1)n2CCOC [SJ000425187-1] — the same, 69.9 µM
- COCCn1c(-c2ccc(OC)cc2)nc2c1c(=O)[nH]c(=O)n2CC(C)C [SJ000425224-1] — the same, 69.9 µM
- CCCCn1c(=O)[nH]c(=O)c2c1nc(-c1ccc(OC)c(C)c1)n2C [SJ000425256-1] — the same, 69.9 µM
- CCCCn1c(=O)[nH]c(=O)c2c1nc(-c1ccc(OC)cc1)n2C [SJ000425260-1] — the same, 69.9 µM
- CC(C)NC(=O)NC(=O)Cn1cnc2cc(-c3ccccc3)sc2c1=O [SJ000425388-1] — the same, 69.9 µM
- CN(C)C(=O)Cn1cnc2cc(-c3ccccc3)sc2c1=O [SJ000425603-1] — the same, 69.9 µM
- CCC(C)(C)NC(=O)Cn1cnc2cc(-c3ccccc3)sc2c1=O [SJ000425613-1] — the same, 69.9 µM
- CCN(CC)C(=O)Cn1cnc2cc(-c3ccccc3)sc2c1=O [SJ000425666-1] — the same, 69.9 µM
- COCCn1c(-c2cccc(C)c2)nc2c1c(=O)[nH]c(=O)n2CC(C)C [SJ000426389-1] — the same, 69.9 µM
- C=CCNC(=O)NC(=O)Cn1cnc2cc(-c3ccccc3)sc2c1=O [SJ000426777-1] — the same, 69.9 µM
- CCCn1c(=O)[nH]c(=O)c2c1nc(-c1cccc(OC)c1)n2CCOC [SJ000427207-1] — the same, 69.9 µM
- CCCCn1c(=O)[nH]c(=O)c2c1nc(-c1ccc(OCC)c(OC)c1)n2CCOC [SJ000427387-1] — the same, 69.9 µM
- COCC(C)NC(=O)Cn1cnc2cc(-c3ccc(Br)cc3)sc2c1=O (stereo not drawn) [SJ000427828-1] — the same, 69.9 µM
- CC(C)(C)NC(=O)NC(=O)Cn1cnc2cc(-c3ccccc3)sc2c1=O [SJ000427956-1] — the same, 69.9 µM
- C=C(C)CN(CC)C(=O)Cn1cnc2cc(-c3ccc(OC)cc3)sc2c1=O [SJ000429044-1] — the same, 69.9 µM
